Measured values from patent publication US5670618A, “Insulin-like peptide” (The State University of New Jersey, priority 1995, dated 1997).

How the values were obtained:
[1] = tested on: cell wall-less strain of Neurospora; settings: added to nutritionally rich, chemically defined culture medium; cited from earlier work
[2] = tested on: solubilized and wheat germ column purified plasma membrane preparations; test: binding to solubilized and wheat germ column purified plasma membrane preparations; parameters: species or system S. cerevisiae; settings: wheat germ column purified membranes, comparable conditions
[3] = biological target: T1, membrane-associated adenylate cyclase from Neurospora crassa (Neurospora crassa, UniProt Q01631); settings: insulin at low doses (10^-9 M); cited from earlier work
T1 construct: host or cells: Neurospora crassa membranes

Tetrahymena pyriformis = settings: cited from earlier work
[4] = tested on: cell wall-less strain of Neurospora; settings: cited from earlier work
intact yeast cells = test: porcine 125I-insulin binding and displacement, intact yeast cells; parameters: species or system S. cerevisiae
Experimental: Insulin binding studies with intact logarithmic and stationary phase yeast cells were performed under typical conditions for mammalian cells (25,26). In logarithmic phase yeast, porcine ^125 I-insulin binding had reached apparent equilibrium by 1-2 h and represented ca. 0.5% of the total counts specifically bound (FIG. 2a). At this time, greater than 95% of the labelled insulin appeared to be intact, as judged by TCA precipitable counts. Unlabelled porcine insulin displaced labelled insulin from intact yeast cells in a dose dependent fashion with 50% bound occurring around 10^-9 M (FIG. 2b). This value is in good agreement with the value obtained for displacement of insulin from mammalian cells.

[5] = tested on: stationary phase cells (yeast); test: stimulation of glycogen synthesis in yeast (14C-glucose incorporation); assay type: cell-based; settings: binding to insulin-related receptor on yeast cell, under proper conditions
Experimental: To assay the effect of ScILP on glycogen synthesis, stationary phase cells are preincubated in phosphate buffer with various doses of ScILP (or a variant thereof). After 30 min of incubation in the presence of 1% glucose and uniformly labelled ^14 C-glucose, the cells are pelleted, resuspended in sodium carbonate, neutralized with HCl and treated with α-amylase to release the glucose incorporated into the newly synthesized glycogen. The enzymatically released glucose is collected and quantitated by scintillation counting.

[6] = tested on: insulin receptor-like protein in yeast; test: autophosphorylation of insulin receptor-like protein in yeast; assay type: cell-based
[7] = biological target: isolated plasma membranes (high affinity binding sites for insulin and IGF-I); test: binding assays with isolated plasma membranes; parameters: species or system S. cerevisiae

T1 sequence (Q01631 whole entry): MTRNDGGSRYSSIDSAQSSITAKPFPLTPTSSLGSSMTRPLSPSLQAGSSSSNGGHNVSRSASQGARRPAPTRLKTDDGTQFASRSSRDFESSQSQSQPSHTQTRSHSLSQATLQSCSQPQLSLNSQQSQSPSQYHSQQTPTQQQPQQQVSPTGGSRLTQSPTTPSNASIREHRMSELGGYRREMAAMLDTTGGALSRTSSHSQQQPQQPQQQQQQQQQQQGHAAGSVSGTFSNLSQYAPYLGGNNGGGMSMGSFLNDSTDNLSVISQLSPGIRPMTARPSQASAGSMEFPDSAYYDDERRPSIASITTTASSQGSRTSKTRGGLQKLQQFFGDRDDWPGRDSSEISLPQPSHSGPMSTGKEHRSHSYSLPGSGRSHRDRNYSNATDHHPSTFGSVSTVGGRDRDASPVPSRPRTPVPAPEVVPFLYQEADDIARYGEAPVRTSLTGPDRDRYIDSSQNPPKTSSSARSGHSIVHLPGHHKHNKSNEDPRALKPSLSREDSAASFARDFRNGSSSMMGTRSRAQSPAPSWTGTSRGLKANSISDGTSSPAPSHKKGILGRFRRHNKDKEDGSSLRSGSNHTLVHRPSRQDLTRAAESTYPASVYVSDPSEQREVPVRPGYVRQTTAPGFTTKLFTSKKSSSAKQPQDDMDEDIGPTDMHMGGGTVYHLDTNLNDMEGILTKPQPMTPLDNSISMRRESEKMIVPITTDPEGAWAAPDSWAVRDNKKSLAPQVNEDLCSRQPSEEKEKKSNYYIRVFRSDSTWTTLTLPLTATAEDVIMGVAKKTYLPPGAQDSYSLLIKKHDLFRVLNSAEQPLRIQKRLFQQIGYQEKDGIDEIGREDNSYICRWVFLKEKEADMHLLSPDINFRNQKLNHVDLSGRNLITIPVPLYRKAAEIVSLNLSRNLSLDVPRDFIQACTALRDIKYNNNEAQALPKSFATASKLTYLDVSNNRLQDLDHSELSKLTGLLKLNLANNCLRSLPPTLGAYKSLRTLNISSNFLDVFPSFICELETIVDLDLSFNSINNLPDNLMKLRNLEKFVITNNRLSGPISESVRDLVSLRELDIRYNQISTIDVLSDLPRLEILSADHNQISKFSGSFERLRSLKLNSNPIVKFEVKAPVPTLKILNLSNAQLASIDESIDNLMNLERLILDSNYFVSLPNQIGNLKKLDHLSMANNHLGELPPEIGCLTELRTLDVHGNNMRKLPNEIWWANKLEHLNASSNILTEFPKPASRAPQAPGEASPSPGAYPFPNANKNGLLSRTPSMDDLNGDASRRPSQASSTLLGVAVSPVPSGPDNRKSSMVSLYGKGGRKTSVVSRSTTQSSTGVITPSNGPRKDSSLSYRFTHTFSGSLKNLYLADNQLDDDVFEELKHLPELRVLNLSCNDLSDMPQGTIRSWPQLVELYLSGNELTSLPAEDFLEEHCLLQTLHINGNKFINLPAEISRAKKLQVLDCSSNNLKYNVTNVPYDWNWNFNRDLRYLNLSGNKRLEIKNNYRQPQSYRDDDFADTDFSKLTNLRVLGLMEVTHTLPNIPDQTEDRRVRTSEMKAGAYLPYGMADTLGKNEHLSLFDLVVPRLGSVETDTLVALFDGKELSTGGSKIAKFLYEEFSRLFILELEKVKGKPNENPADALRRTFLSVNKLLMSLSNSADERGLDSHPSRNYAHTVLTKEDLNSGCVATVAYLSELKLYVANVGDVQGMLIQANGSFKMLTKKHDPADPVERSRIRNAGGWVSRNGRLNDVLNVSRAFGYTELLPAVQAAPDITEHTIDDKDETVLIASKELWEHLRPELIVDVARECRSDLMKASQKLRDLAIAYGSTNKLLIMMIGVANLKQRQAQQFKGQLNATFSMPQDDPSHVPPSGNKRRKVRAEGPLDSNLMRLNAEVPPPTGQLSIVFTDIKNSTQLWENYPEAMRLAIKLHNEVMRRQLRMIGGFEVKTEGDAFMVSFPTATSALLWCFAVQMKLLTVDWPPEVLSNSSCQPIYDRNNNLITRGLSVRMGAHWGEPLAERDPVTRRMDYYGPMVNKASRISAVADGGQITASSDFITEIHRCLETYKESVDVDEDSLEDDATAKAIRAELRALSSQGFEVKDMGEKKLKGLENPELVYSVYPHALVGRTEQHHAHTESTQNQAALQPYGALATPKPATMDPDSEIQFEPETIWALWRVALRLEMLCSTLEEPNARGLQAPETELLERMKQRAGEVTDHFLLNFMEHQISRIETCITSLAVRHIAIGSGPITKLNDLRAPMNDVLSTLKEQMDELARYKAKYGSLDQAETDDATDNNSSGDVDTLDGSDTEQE

In the case of proinsulin, the “influence on growth, morphology and viability” value [1] is listed as “inactive”.

In the case of insulin-like growth factor (IGF-I), the “specific binding (of 4-5% total binding)” value [2] is reported as 1-2%.

For bovine insulin, the “effect on adenylate cyclase specific activity” value [3] is listed as “significantly inhibit”, the “effect on glucose uptake” value (Tetrahymena pyriformis) is listed as “small effect” and the “increase of 14C-labelled glucose incorporation into glycogen” value ([4]; 30 min treatment, 100 nM) is listed as 41%. For the same substance, the “more glycogen than control cells” value ([4]; cells grown in presence of 100 nM insulin) was 40% and the “intracellular levels of UDPG-glucose by 31P-NMR” value [4] was “increase”.

For porcine insulin, the “labelled insulin intact, judged by TCA precipitable counts” value (intact yeast cells; at apparent equilibrium of binding (1-2 h)) was “greater than 95%”, the IC50 (intact yeast cells; intact yeast cells, dose dependent displacement, read-out: concentration of unlabelled insulin at 50% bound (displacement of labelled insulin)) was ~1000 pM and the “time to apparent binding equilibrium” value (intact yeast cells; logarithmic phase yeast) was 1 to 2 h. For the same substance, the “total counts specifically bound” value (intact yeast cells; logarithmic phase yeast, at apparent equilibrium) was “ca. 0.5%”.

In the case of glucagon, the “effect on adenylate cyclase specific activity” value [3] is listed as “stimulated adenylate cyclase activity”.

For mammalian insulin, the “effect on glycogen synthesis” value [5] is listed as “stimulates glycogen synthesis”, the “autophosphorylation of insulin receptor-like protein on tyrosine residues” value [6] is listed as “results in its autophosphorylation on tyrosine residues” and the “influence on growth, morphology and viability” value [1] is listed as “distinctively different morphology, enhanced growth, and extension of viability at the stationary phase in culture”.

In the case of insulin, the Kd [7] is reported as 700 pM and the “specific binding (of 4-5% total binding)” value [2] is reported as 1-2%.

In the case of reduced insulin, the “influence on growth, morphology and viability” value [1] is given as “inactive”.
